Reference: patent US20220324835A1 (Nurix Therapeutics, Inc., priority 2018, published 2022)

Tests used:
Cbl-b [1] = target: T1, Cbl-b (Homo sapiens, UniProt Q13191); assay: Cbl-b inhibition assay (Cbl-b activity assay, FRET, Biological Example 1; 100 mM NaCl, 60 nM Src kinase); type: biochemical; conditions: upper bound stated in text lists; read-out: IC50 values in the Cbl-b inhibition assay of Biological Example 1
Procedure, shortened: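 FRET read-out: loss of signal marks inhibition. Mix = biotin-Avi-Cbl-b (N-term), Src kinase, UbcH5B-Ub(Bodipy-FL, irreversible conjugate), streptavidin-Tb, assay buffer.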

T-cell [2] = assay: IL-2 secretion from T-cells co-stimulated with anti-CD3 and anti-CD28 antibody (Biological Example 2); type: cell-based, human; conditions: Homo sapiens, T-cell, fold change over baseline, primary human total T-cells, read-out: IL-2 secretion Anti-CD3/Anti-CD28 stimulation; for fold induction at 0.3 µM: 0.3 μM Cbl-b inhibitor; for fold induction at 1 µM: 1 μM Cbl-b inhibitor; for fold induction at 4 µM: 4 μM Cbl-b inhibitor
Procedure, shortened: (§1)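 Values are fold-change over baseline: readings (IL-2 release, CD25 staining) from inhibitor-treated T-cells divided against untreated cells […]. No detailed procedure stated.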

T-cell [3] = assay: IL-2 secretion from T-cells stimulated with anti-CD3 antibody alone (Biological Example 2); type: cell-based, human; conditions: T-cell, fold change over baseline, primary human total T-cells, read-out: IL-2 secretion Anti-CD3 stimulation; for fold induction at 1 µM: 1 μM Cbl-b inhibitor; for fold induction at 8 µM: 8 μM Cbl-b inhibitor
T-cell [4] = assay: CD25 cell surface staining on T-cells co-stimulated with anti-CD3 and anti-CD28 antibody (Biological Example 2); type: cell-based, human; conditions: Homo sapiens, T-cell, fold change over baseline, primary human total T-cells, read-out: CD25 staining Anti-CD3/Anti-CD28 stimulation; for fold induction at 0.3 µM: 0.3 μM Cbl-b inhibitor; for fold induction at 1 µM: 1 μM Cbl-b inhibitor; for fold induction at 4 µM: 4 μM Cbl-b inhibitor
Procedure, shortened: as §1

T-cell [5] = assay: CD25 cell surface staining on T-cells stimulated with anti-CD3 antibody alone (Biological Example 2); type: cell-based, human; conditions: T-cell, fold change over baseline, primary human total T-cells, read-out: CD25 staining Anti-CD3 stimulation; for fold induction at 1 µM: 1 μM Cbl-b inhibitor; for fold induction at 8 µM: 8 μM Cbl-b inhibitor
Cbl-b [6] = target: T1, Cbl-b; assay: Cbl-b activity assay (Cbl-b inhibition assay), TR-FRET of Cbl-b interaction with UbcH5B-Ub; type: biochemical; conditions: assay buffer with 100 mM NaCl, 60 nM Src kinase; read-out: Cbl-b activity IC50
Procedure, shortened: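 Compound-treated Cbl-b was incubated 1.5 h with Src kinase (60 nM final; 30 nM for asterisked values, which also used 50 mM instead of 100 mM NaCl), 1 mM ATP and 5 mM MgCl2. Binding to fluorescent Ub-loaded UbcH5B (C85K mutant) was then read by TR-FRET after 1 h more.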

T1 sequence (Q13191 36-427): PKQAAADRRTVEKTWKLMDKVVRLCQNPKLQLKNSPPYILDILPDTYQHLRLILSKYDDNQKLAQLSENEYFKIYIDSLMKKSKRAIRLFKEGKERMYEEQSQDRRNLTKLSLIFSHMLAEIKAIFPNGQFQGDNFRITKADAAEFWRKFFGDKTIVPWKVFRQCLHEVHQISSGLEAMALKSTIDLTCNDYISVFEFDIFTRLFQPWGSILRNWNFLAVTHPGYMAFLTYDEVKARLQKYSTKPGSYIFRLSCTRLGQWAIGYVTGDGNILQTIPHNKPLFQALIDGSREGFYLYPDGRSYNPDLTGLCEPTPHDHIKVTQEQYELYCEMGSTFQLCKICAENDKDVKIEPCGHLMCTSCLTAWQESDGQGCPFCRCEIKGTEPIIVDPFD

Structure (SMILES)	IC50 (Cbl-b [1]) [µM]	fold induction at 0.3 µM (T-cell [2])	fold induction at 1 µM (T-cell [2])	fold induction at 4 µM (T-cell [2])	fold induction at 1 µM (T-cell [3])	fold induction at 8 µM (T-cell [3])	fold induction at 0.3 µM (T-cell [4])	fold induction at 1 µM (T-cell [4])	fold induction at 4 µM (T-cell [4])	fold induction at 1 µM (T-cell [5])	fold induction at 8 µM (T-cell [5])	IC50 (Cbl-b [6]) [µM]
COc1cc(C(=O)Nc2cccc([C@H](C)Cc3nncn3C)c2)nc(C(F)(F)F)c1 [Compound 192, (R)-4-methoxy-N-(3-(1-(4-methyl-4H-1,2,4-triazol-3-yl)propan-2-yl)phenyl)-6-(trifluoromethyl)picolinamide]	≤ 1	1.01 to 2.5	1.01 to 2.5	1.01 to 2.5	0.101 to 0.15	0.101 to 0.15	1.01 to 1.3	1.01 to 1.3	1.01 to 1.3	0.801 to 1	0.801 to 1	0.301 to 1
C[C@H](Cc1nncn1C)c1cccc(NC(=O)c2cc3cc(N4CCN(C)C(=O)C4)ccc3cn2)c1 [Compound 209, (R)-6-(4-methyl-3-oxopiperazin-1-yl)-N-(3-(1-(4-methyl-4H-1,2,4-triazol-3-yl)propan-2-yl)phenyl)isoquinoline-3-carboxamide 2,2,2-trifluoroacetate]	≤ 0.1	5 to 7.5	5 to 7.5	> 7.5	> 0.201	> 0.201	1.31 to 1.5	1.31 to 1.5	1.51 to 1.75	< 0.6	> 1	< 0.1
Cc1ccc(C(=O)Nc2cccc(C(C)Cc3nccn3C)c2)nc1C1CC1 (stereo not drawn) [Compound 214, 6-Cyclopropyl-5-methyl-N-(3-(1-(1-methyl-1H-imidazol-2-yl)propan-2-yl)phenyl)picolinamide]	≤ 10	> 7.5	> 7.5	> 7.5	0.051 to 0.1	0.051 to 0.1	< 1	< 1	1.01 to 1.3	< 0.6	< 0.6	1 to 3
Cc1ccnn1CC(C)c1cccc(NC(=O)c2cccc(C(F)(F)F)n2)c1 (stereo not drawn) [Compound 215, N-[3-[1-methyl-2-(5-methylpyrazol-1-yl)ethyl]phenyl]-6-(trifluoromethyl)pyridine-2-carboxamide]	≤ 1	< 1	< 1	1.01 to 2.5	0.051 to 0.1	0.051 to 0.1	1.51 to 1.75	1.31 to 1.5	1.51 to 1.75	< 0.6	< 0.6	0.301 to 1
C[C@@H](Cc1nncn1C)c1cccc(NC(=O)c2cc(C(=O)N3CC[C@H](O)C3)cc(C3CC3)n2)c1 [Compound 221, 6-Cyclopropyl-4-[(3S)-3-hydroxypyrrolidine-1-carbonyl]-N-[3-[(1S)-1-methyl-2-(4-methyl-1,2,4-triazol-3-yl)ethyl]phenyl]pyridine-2-carboxamide]	≤ 1	< 1	< 1	< 1	0.051 to 0.1	0.051 to 0.1	1.01 to 1.3	1.31 to 1.5	1.31 to 1.5	< 0.6	< 0.6	0.301 to 1
C[C@H](Cc1nncn1C)c1cccc(N2Cc3c(cc(C4CC4)cc3C(F)(F)F)C2=O)c1 [Compound 260, (R)-6-cyclopropyl-2-(3-(1-(4-methyl-4H-1,2,4-triazol-3-yl)propan-2-yl)phenyl)-4-(trifluoromethyl)isoindolin-1-one]	≤ 0.1	1.01 to 2.5	1.01 to 2.5	2.51 to 5	> 0.201	> 0.201	1.01 to 1.3	1.01 to 1.3	1.31 to 1.5	0.801 to 1	> 1	< 0.1
Cc1conc1CC(C)c1cccc(N2Cc3c(cccc3C(F)(F)F)C2=O)c1 (stereo not drawn) [Compound 268, 2-(3-(1-(4-methylisoxazol-3-yl)propan-2-yl)phenyl)-4-(trifluoromethyl)isoindolin-1-one]	≤ 0.5	1.01 to 2.5	1.01 to 2.5	1.01 to 2.5	< 0.05	0.051 to 0.1	1.01 to 1.3	1.01 to 1.3	1.01 to 1.3	0.601 to 0.8	0.801 to 1	0.301 to 1
C[C@H](Cc1nncn1C)c1cccc(N2Cc3c(cc(C(=O)N4CC(O)C4)cc3C3CC3)C2=O)c1 [Compound 278, (R)-4-cyclopropyl-6-(3-hydroxyazetidine-1-carbonyl)-2-(3-(1-(4-methyl-4H-1,2,4-triazol-3-yl)propan-2-yl)phenyl)isoindolin-1-one]	≤ 0.1	1.01 to 2.5	1.01 to 2.5	2.51 to 5	0.151 to 0.2	> 0.201	1.01 to 1.3	1.01 to 1.3	1.01 to 1.3	0.801 to 1	> 1	< 0.1
C[C@H](Cc1nncn1C)c1cccc(N2Cc3c(cc(-c4ccn[nH]4)cc3C(F)(F)F)C2=O)c1 [Compound 279, (R)-2-(3-(1-(4-methyl-4H-1,2,4-triazol-3-yl)propan-2-yl)phenyl)-6-(1H-pyrazol-5-yl)-4-(trifluoromethyl)isoindolin-1-one]	≤ 0.1	2.51 to 5	5 to 7.5	> 7.5	> 0.201	> 0.201	1.01 to 1.3	1.31 to 1.5	1.31 to 1.5	> 1	> 1	< 0.1
Cn1cnnc1CC(C)(C)c1cccc(NC(=O)c2cccc(C(F)(F)F)n2)c1 [Compound 284, N-(3-(2-methyl-1-(4-methyl-4H-1,2,4-triazol-3-yl)propan-2-yl)phenyl)-6-(trifluoromethyl)picolinamide]	≤ 0.1	1.01 to 2.5	2.51 to 5	> 7.5	> 0.201	> 0.201	1.01 to 1.3	1.01 to 1.3	1.31 to 1.5	0.801 to 1	> 1	< 0.1
Cn1cnnc1CC(c1cccc(N2Cc3c(cccc3C(F)(F)F)C2=O)c1)C(F)(F)F (stereo not drawn) [Compound 289, 2-(3-(1,1,1-Trifluoro-3-(4-methyl-4H-1,2,4-triazol-3-yl)propan-2-yl)phenyl)-4-(trifluoromethyl)isoindolin-1-one]	≤ 0.5	< 1	< 1	1.01 to 2.5	0.101 to 0.15	0.151 to 0.2	1.01 to 1.3	1.01 to 1.3	1.01 to 1.3	0.801 to 1	0.801 to 1	0.301 to 1
C[C@H](Cc1nncn1C)c1cccc(NC(=O)c2ccnc3ccnn23)c1 [Compound 328, (R)-N-(3-(1-(4-Methyl-4H-1,2,4-triazol-3-yl)propan-2-yl)phenyl)pyrazolo[1,5-a]pyrimidine-7-carboxamide]	≤ 0.1	1.01 to 2.5	1.01 to 2.5	2.51 to 5	0.051 to 0.1	0.101 to 0.15	1.01 to 1.3	1.01 to 1.3	1.01 to 1.3	0.801 to 1	> 1	< 0.1
